In ChEMBL document CHEMBL1145605, “Novel 2-imidazoles as potent and selective alpha1A adrenoceptor partial agonists” (Bioorg Med Chem Lett, 2008):

What was measured:
[1] = target: T1, Alpha-1A adrenergic receptor (Homo sapiens, UniProt P35348); test: Agonist activity at human cloned adrenergic alpha-1A receptor expressed in CHO cells assessed as calcium mobilization by FLIPR; format: functional, cell-based
T1 sequence (P35348 whole entry): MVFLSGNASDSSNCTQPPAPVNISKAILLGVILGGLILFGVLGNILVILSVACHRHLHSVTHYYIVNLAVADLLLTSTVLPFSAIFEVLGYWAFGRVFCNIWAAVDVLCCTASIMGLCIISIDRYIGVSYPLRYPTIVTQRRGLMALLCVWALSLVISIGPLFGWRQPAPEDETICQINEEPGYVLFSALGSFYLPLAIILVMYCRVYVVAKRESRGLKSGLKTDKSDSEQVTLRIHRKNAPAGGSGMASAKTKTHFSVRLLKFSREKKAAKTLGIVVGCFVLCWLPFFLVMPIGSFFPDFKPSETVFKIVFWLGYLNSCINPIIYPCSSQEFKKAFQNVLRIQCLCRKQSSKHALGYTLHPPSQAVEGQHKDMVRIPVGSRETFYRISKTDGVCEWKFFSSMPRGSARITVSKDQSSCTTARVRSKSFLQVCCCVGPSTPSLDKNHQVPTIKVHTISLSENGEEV

[2] = target: T2, Alpha-1A adrenergic receptor (Homo sapiens) (UniProt P35348); test: Agonist activity at human cloned adrenergic alpha-1A receptor expressed in CHO cells assessed as calcium mobilization by FLIPR relative to phenylephrine; format: functional, cell-based
T2 sequence (whole entry): T1 sequence (P35348 whole entry)

[3] = target: T3, Alpha-1B adrenergic receptor (Homo sapiens, UniProt P35368); test: Agonist activity at human cloned adrenergic alpha-1B receptor expressed in CHO cells assessed as calcium mobilization by FLIPR; format: functional, cell-based
T3 sequence (P35368 whole entry): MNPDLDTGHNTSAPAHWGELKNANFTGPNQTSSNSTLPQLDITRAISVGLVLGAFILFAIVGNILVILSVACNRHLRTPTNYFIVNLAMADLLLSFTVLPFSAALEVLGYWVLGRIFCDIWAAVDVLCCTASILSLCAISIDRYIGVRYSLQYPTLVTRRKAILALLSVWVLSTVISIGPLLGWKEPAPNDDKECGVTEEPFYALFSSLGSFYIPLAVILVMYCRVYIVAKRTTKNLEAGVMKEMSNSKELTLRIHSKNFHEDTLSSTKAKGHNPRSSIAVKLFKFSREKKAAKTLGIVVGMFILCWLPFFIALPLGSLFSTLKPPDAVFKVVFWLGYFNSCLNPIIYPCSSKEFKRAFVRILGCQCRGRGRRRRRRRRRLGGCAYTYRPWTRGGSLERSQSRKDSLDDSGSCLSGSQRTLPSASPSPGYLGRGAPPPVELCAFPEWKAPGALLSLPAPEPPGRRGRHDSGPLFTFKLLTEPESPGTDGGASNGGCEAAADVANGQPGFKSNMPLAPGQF

[4] = target: T4, Alpha-1D adrenergic receptor (Homo sapiens, UniProt P25100); test: Agonist activity at human cloned adrenergic Alpha-1D receptor expressed in CHO cells assessed as calcium mobilization by FLIPR; format: functional, cell-based
T4 sequence (P25100 whole entry): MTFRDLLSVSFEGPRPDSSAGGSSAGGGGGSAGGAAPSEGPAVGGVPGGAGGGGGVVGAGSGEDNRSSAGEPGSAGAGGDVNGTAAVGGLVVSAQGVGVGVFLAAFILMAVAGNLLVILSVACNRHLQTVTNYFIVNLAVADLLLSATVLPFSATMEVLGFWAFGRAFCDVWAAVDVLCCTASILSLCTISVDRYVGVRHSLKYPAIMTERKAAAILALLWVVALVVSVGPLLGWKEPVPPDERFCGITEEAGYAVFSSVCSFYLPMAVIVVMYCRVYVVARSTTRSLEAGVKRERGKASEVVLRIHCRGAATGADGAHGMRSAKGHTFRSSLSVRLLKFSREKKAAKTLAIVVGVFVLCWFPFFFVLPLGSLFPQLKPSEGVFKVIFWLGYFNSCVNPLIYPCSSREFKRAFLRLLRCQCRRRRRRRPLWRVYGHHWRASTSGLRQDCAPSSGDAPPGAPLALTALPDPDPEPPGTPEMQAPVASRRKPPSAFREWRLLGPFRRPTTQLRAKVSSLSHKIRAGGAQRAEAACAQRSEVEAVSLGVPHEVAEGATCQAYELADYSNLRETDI

[5] = target: T5, Alpha-2A adrenergic receptor (Homo sapiens, UniProt P08913); test: Agonist activity at human cloned adrenergic alpha-2A receptor expressed in CHOK1 cells by beta-lactamase reporter gene assay; format: functional, cell-based, CHO-K1
T5 sequence (P08913 whole entry): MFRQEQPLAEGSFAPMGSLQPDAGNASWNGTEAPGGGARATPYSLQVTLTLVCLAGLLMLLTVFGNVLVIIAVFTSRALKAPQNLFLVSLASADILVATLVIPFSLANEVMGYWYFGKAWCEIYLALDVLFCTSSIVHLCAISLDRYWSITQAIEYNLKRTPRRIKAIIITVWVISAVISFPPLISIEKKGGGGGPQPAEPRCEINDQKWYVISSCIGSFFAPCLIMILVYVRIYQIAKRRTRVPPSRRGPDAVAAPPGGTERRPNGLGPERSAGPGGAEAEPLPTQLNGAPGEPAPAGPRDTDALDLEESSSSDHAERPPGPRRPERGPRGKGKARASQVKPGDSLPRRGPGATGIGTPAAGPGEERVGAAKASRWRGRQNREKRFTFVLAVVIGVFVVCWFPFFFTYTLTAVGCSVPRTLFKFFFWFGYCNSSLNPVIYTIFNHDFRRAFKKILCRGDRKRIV

[6] = Partition coefficient, log D at pH 7.4; format: physicochemical; conditions: octanol/water
[7] = Intrinsic clearance in human liver microsomes; format: ADME, Microsome
[8] = Intrinsic clearance per 10^6 cells in human hepatocytes; format: ADME, cell-based, Liver, Hepatocyte
[9] = target: Voltage-gated inwardly rectifying potassium channel KCNH2 (Homo sapiens, UniProt Q12809); test: Activity at human ERG at 10 uM
Chain of Voltage-gated inwardly rectifying potassium channel KCNH2 (Q12809 whole entry): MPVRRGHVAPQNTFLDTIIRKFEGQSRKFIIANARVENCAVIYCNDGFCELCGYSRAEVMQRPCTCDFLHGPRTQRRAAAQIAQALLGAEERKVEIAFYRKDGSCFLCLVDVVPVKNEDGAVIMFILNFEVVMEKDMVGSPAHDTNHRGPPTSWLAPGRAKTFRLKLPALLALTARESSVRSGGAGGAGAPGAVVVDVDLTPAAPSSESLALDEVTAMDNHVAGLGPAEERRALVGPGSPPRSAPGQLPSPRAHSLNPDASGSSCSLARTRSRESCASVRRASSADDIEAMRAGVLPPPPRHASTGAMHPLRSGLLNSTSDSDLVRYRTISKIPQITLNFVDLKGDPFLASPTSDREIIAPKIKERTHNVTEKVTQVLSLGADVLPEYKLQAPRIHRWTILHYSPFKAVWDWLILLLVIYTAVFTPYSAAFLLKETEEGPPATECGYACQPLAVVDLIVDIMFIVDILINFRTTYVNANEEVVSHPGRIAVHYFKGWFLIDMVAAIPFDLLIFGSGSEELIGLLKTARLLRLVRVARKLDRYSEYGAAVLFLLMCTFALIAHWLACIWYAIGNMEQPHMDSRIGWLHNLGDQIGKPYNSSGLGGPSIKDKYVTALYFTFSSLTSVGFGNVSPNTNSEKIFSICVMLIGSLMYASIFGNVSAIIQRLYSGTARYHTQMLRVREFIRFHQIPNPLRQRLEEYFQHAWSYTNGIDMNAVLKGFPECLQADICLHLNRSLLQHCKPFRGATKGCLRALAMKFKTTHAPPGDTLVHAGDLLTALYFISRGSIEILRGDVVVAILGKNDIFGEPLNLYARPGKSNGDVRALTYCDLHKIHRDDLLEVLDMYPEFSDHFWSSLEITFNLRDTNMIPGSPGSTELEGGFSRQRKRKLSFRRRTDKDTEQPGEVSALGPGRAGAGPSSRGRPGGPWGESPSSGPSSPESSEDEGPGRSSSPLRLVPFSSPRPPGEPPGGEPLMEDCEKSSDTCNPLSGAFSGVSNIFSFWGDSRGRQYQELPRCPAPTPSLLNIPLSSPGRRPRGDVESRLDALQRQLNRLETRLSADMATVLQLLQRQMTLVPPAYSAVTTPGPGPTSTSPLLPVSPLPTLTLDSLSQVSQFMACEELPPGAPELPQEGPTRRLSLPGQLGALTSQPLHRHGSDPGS

CYP2C9 = CYP2C9 (Homo sapiens, UniProt P11712); test: Inhibition of CYP2C9 at 10 uM; format: ADME
Chain of CYP2C9 (P11712 whole entry): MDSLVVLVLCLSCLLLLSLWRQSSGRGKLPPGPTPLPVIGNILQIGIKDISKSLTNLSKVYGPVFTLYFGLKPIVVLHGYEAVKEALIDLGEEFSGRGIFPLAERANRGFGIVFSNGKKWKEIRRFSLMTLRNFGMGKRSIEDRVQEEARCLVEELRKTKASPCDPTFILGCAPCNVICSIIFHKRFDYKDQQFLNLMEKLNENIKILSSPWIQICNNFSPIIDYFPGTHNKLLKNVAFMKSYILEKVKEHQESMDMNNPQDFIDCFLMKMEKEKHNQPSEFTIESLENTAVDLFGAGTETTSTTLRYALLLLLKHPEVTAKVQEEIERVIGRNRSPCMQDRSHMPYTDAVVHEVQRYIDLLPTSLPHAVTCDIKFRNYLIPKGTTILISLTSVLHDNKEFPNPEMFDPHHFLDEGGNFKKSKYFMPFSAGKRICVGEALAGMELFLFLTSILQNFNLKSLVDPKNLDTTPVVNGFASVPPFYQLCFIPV

CYP2C19 = CYP2C19 (Homo sapiens, UniProt P33261); test: Inhibition of CYP2C19 at 10 uM; format: ADME
Chain of CYP2C19 (P33261 whole entry): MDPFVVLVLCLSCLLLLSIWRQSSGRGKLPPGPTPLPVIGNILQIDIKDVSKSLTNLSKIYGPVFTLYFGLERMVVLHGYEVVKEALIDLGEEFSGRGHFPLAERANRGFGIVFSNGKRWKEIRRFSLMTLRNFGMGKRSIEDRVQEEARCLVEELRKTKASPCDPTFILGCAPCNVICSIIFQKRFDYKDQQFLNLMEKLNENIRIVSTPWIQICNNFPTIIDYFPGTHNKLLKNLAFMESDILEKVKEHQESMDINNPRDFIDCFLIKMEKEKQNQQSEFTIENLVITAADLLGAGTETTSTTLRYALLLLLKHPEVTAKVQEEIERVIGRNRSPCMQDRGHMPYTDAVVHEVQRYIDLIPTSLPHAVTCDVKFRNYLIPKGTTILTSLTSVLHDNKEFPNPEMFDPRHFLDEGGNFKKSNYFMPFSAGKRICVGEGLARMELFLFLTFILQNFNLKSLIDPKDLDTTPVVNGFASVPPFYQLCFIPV

CYP2D6 = CYP2D6 (Homo sapiens, UniProt P10635); test: Inhibition of CYP2D6 at 10 uM; format: ADME
Chain of CYP2D6 (P10635 whole entry): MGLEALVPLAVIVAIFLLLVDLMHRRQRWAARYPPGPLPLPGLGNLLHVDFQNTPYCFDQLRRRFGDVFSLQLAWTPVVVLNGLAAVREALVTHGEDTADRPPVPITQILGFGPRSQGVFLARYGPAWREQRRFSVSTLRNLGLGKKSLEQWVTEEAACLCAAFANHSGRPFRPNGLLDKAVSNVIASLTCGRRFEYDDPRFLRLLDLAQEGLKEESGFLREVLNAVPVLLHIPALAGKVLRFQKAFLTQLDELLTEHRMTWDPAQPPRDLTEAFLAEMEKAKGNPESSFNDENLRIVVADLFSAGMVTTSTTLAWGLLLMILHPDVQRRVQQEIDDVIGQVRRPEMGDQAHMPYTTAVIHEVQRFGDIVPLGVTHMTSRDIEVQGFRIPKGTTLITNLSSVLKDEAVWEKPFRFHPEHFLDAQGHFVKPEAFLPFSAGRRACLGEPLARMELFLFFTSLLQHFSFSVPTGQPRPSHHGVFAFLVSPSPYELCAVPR

CYP3A4 = CYP3A4 (Homo sapiens, UniProt P08684); test: Inhibition of CYP3A4 at 10 uM; format: ADME
Chain of CYP3A4 (P08684 whole entry): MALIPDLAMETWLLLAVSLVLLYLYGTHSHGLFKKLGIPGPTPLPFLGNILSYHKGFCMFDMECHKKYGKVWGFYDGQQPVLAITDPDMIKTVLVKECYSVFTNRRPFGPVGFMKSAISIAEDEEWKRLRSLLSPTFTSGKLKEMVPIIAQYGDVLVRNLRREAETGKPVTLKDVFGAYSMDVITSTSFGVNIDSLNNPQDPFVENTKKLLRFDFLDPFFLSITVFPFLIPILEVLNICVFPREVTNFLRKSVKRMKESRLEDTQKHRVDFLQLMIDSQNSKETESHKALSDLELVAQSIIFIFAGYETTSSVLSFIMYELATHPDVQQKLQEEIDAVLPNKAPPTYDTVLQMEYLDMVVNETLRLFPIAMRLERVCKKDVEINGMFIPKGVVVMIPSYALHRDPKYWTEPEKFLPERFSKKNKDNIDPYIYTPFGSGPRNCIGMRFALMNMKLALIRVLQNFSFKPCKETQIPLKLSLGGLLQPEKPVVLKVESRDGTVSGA

CS(=O)(=O)Nc1c(Cl)ccc2c1CCCC2c1ncc[nH]1 (stereo not drawn)
EC50 [1]: 0.043 µM | Emax [2]: 61% | EC50 [3]: > 10 µM | EC50 [4]: > 10 µM | EC50 [5]: > 10 µM | logD [6]: 1.5 | microsomal CLint [7]: < 7 µL/min/mg | hepatocyte CLint [8]: < 5 µL/min/1e6 cells | Activity [9]: 0% | inhibition at 10 µM (CYP2C9): < 25% | inhibition at 10 µM (CYP2C19): < 25% | inhibition at 10 µM (CYP2D6): < 25% | inhibition at 10 µM (CYP3A4): < 25%
